Measured values from ChEMBL document CHEMBL1201862, “PubChem BioAssay data set” (2004).
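Step 1: Grow cells in 96-well plates. Step 2: Expose to compound for 48 hours at 5 concentrations. Step 3: Interpolate endpoints linearly; if unreached, use highest concentration. GI50 marks 50% less growth.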 The source made the active and inactive calls. Rule as the data show it: active = GI50 up to about 1.1 µM and inactive = higher.

Columns and labels:
Assay in all cases: inhibition of tumour cell growth, NCI panel, 48 h
K562 = system: K562
MDA-N = system: MDA-N
HT-29 = system: HT-29
SN12C = system: SN12C
IGROV-1 = system: IGROV-1
HCT-15 = system: HCT-15
SF-268 = system: SF-268
BT-549 = system: BT-549
OVCAR-5 = system: OVCAR-5
SR = system: SR
NCI-H226 = system: NCI-H226
OVCAR-8 = system: OVCAR-8
MDA-MB-231 = system: MDA-MB-231
CCRF-CEM = system: CCRF-CEM
MOLT-4 = system: MOLT-4
HOP-62 = system: HOP-62
CAKI-1 = system: CAKI-1
M14 = system: M14
HCT-116 = system: HCT-116

Row | Compound | GI50 (K562) | GI50 (MDA-N) | GI50 (HT-29) | GI50 (SN12C) | GI50 (IGROV-1) | GI50 (HCT-15) | GI50 (SF-268) | GI50 (BT-549) | GI50 (OVCAR-5) | GI50 (SR) | GI50 (NCI-H226) | GI50 (OVCAR-8) | GI50 (MDA-MB-231) | GI50 (CCRF-CEM) | GI50 (MOLT-4) | GI50 (HOP-62) | GI50 (CAKI-1) | GI50 (M14) | GI50 (HCT-116)
1 | CN(C)c1ccc(C(=O)NCCCCCCC(=O)NO)cc1 | 0.337 µM (active) | 0.233 µM (active) | 0.349 µM (active) | 0.378 µM (active) | 0.553 µM (active) | 1.27 µM | 0.435 µM (active) | 1.7 µM (inactive) | 0.218 µM (active) | 0.205 µM (active) | 2.75 µM (inactive) | 0.153 µM (active) | 0.697 µM (active) | 0.238 µM (active) | 0.241 µM (active) | 2.3 µM (inactive) | 0.465 µM (active) | 0.565 µM (active) | 0.169 µM (active)
2 | C=C(C)C(=O)N1c2ccc(OC)cc2CC1C(=O)OCC (centres undefined) | > 100 µM (inactive) | > 100 µM (inactive) | > 100 µM (inactive) | > 100 µM (inactive) | > 100 µM (inactive) | > 100 µM | > 100 µM (inactive) | > 100 µM (inactive) | > 100 µM (inactive) | > 100 µM (inactive) | > 100 µM (inactive) | > 100 µM (inactive) | > 100 µM (inactive) | > 100 µM (inactive) | > 100 µM (inactive) | > 100 µM (inactive) | > 100 µM (inactive) | > 100 µM (inactive) | > 100 µM (inactive)
3 | Cc1cccc2c1C(=O)[C@@](C)([C@]1(C)Nc3cccc(C)c3C1=O)N2 | > 100 µM (inactive) | 98.4 µM (inactive) | > 100 µM (inactive) | > 100 µM (inactive) | > 100 µM (inactive) | > 100 µM | > 100 µM (inactive) | > 100 µM (inactive) | > 100 µM (inactive) | > 100 µM (inactive) | > 100 µM (inactive) | > 100 µM (inactive) | > 100 µM (inactive) | 49.4 µM (inactive) | > 100 µM (inactive) | > 100 µM (inactive) | > 100 µM (inactive) | > 100 µM (inactive) | > 100 µM (inactive)
4 | N=C(N)NS(=O)(=O)c1ccc(/N=N/c2c(O)c(C(=O)O)cc3ccccc23)cc1 | > 100 µM (inactive) | > 100 µM (inactive) | > 100 µM (inactive) | > 100 µM (inactive) | > 100 µM (inactive) | > 100 µM | > 100 µM (inactive) | > 100 µM (inactive) | > 100 µM (inactive) | > 100 µM (inactive) | > 100 µM (inactive) | > 100 µM (inactive) | 47.4 µM (inactive) | > 100 µM (inactive) | > 100 µM (inactive) | > 100 µM (inactive) | > 100 µM (inactive) | > 100 µM (inactive) | > 100 µM (inactive)
5 | O=C1/C(=C\c2ccco2)Oc2ccccc21 | > 100 µM (inactive) | > 100 µM (inactive) | > 100 µM (inactive) | > 100 µM (inactive) | 99.1 µM (inactive) | > 100 µM | > 100 µM (inactive) | > 100 µM (inactive) | > 100 µM (inactive) | 55.2 µM (inactive) | > 100 µM (inactive) | > 100 µM (inactive) | > 100 µM (inactive) | > 100 µM (inactive) | 23.7 µM (inactive) | > 100 µM (inactive) | > 100 µM (inactive) | > 100 µM (inactive) | > 100 µM (inactive)
6 | Cc1ccc2c(n1)C(=O)C=CC2=O | 3.1 µM (inactive) | 7.4 µM (inactive) | 13.9 µM (inactive) | 13.4 µM (inactive) | 14.7 µM (inactive) | 9.48 µM | 20.9 µM (inactive) | 16.5 µM (inactive) | 18.2 µM (inactive) | 3.24 µM (inactive) | 19.6 µM (inactive) | 15.1 µM (inactive) | 4.72 µM (inactive) | 1.17 µM (inactive) | 2.61 µM (inactive) | 26.3 µM (inactive) | 2.02 µM (inactive) | 15 µM (inactive) | 1.97 µM (inactive)
7 | Cc1ccc(S(=O)(=O)/N=C2/N(C)CCCS2(=O)=O)cc1 | > 100 µM (inactive) | > 100 µM (inactive) | > 100 µM (inactive) | > 100 µM (inactive) | > 100 µM (inactive) | > 100 µM | > 100 µM (inactive) | > 100 µM (inactive) | > 100 µM (inactive) | > 100 µM (inactive) | > 100 µM (inactive) | > 100 µM (inactive) | 18 µM (inactive) | > 100 µM (inactive) | > 100 µM (inactive) | > 100 µM (inactive) | > 100 µM (inactive) | > 100 µM (inactive) | > 100 µM (inactive)
8 | CC(C)(C)/C(O)=C\c1nc2ccc(C(F)(F)F)cc2[nH]c1=O | > 100 µM (inactive) | > 100 µM (inactive) | > 100 µM (inactive) | > 100 µM (inactive) | > 100 µM (inactive) | > 100 µM | > 100 µM (inactive) | > 100 µM (inactive) | > 100 µM (inactive) | > 100 µM (inactive) | > 100 µM (inactive) | > 100 µM (inactive) | > 100 µM (inactive) | > 100 µM (inactive) | > 100 µM (inactive) | > 100 µM (inactive) | > 100 µM (inactive) | > 100 µM (inactive) | > 100 µM (inactive)
9 | COc1ccc(/N=C2\C(=S)N(c3ccc(OC)cc3)/C(=N/S(=O)(=O)c3ccccc3)N2c2ccccc2)cc1 | 1.02 µM (active) | 3.93 µM (inactive) | 19.9 µM (inactive) | 15.1 µM (inactive) | 12.9 µM (inactive) | 5.75 µM | 8.87 µM (inactive) | 4.94 µM (inactive) | 17.3 µM (inactive) | 0.889 µM (active) | 16 µM (inactive) | 3.95 µM (inactive) | 4.79 µM (inactive) | 2.59 µM (inactive) | 0.953 µM (active) | > 35.3 µM (inactive) | 13.2 µM (inactive) | 4.9 µM (inactive) | 6.64 µM (inactive)
10 | CN/C(N)=N/N=C1/C(=O)Nc2ccccc21 | > 100 µM (inactive) | > 100 µM (inactive) | > 100 µM (inactive) | > 100 µM (inactive) | > 100 µM (inactive) | > 100 µM | > 100 µM (inactive) | > 100 µM (inactive) | > 100 µM (inactive) | > 100 µM (inactive) | > 100 µM (inactive) | > 100 µM (inactive) | > 100 µM (inactive) | > 100 µM (inactive) | > 100 µM (inactive) | > 100 µM (inactive) | > 100 µM (inactive) | > 100 µM (inactive) | > 100 µM (inactive)
11 | OCCCCCNc1nc(O)c2[nH]cnc2n1 | > 100 µM (inactive) | > 100 µM (inactive) | > 100 µM (inactive) | > 100 µM (inactive) | > 100 µM (inactive) | > 100 µM | > 100 µM (inactive) | > 100 µM (inactive) | > 100 µM (inactive) | > 100 µM (inactive) | > 100 µM (inactive) | > 100 µM (inactive) | > 100 µM (inactive) | > 100 µM (inactive) | > 100 µM (inactive) | > 100 µM (inactive) | > 100 µM (inactive) | > 100 µM (inactive) | > 100 µM (inactive)
